# Laboratory results published in patent EP0968998A1, “Cosmetic compositions, ceramide analogues with anti-elastase activity and process for their preparation” (ELF ATOCHEM S.A., priority 1998, dated 2000).
# Target: T1, élastase de leucocytes humains (Homo sapiens, UniProt P08246)
# T1 construct: purchased Elastin Products Co. SE 563; host or cells: human leukocytes, as the enzyme's name says
# T1 sequence (P08246 30-267): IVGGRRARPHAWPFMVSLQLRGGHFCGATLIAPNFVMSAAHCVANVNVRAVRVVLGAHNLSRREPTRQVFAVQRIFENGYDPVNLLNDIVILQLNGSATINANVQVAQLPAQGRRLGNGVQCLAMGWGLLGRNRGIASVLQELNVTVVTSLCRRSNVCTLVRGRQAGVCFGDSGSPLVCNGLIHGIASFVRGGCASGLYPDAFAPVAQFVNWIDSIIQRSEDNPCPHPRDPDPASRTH
# Experiment: Anti-elastase activity: release of p-nitroaniline from N-succinyl-(Ala)3-p-nitroanilide, spectrophotometry at 410 nm
# Format: biochemical
# Conditions: pH 8, 37°C, pH8, 5 min preincubation, substrate 250 µM, read-out: % I (%); for inhibition at 250 µM: Concentration 250 µM; for inhibition at 500 µM: Concentration 500 µM
# From the text: Les exemples qui suivent permettent d'illustrer l'invention. Dans ces exemples, on utilise les méthodes d'analyse suivantes : - Spectrographie infrarouge (IR) Les spectres sont réalisés au moyen d'un appareil PERKIN ELMER 1760 IRTF, en dispersion dans KBr à 1 %. Les valeurs sont exprimées en nombre d'onde par centimètre. - Résonance magnétique nucléaire (RMN) Les spectres sont réalisés au moyen d'un appareil BRUCKER DRX 500, à 500 MHz (^1H) et 125 MHz (^13C) dans le DMSO-d6. La calibration de l'appareil est effectuée au moyen de DMSO. Les déplacements chimiques sont exprimés en ppm. L'aspect des signaux est noté : singulet (s), doublet (d), triplet (t), quadruplet (q), multiplet (m), quintuplet (*5) et couplage AB (AB). - Mesure de l'activité anti-élastase L'activité anti-élastase est mesurée selon la méthode qui consiste à faire réagir l'élastase de leucocytes humains (référence SE 563; Elastin Products Co.; Owensville, MO, USA) avec le N-succinyl-(Ala)3-p-nitroanilide (réf. S4760; Sigma) et mesurer la libération de p-nitroaniline. On utilise le N-succinyl-(Ala)3-p-nitroanilide en solution dans le tétrahydrofurane et une solution d'élastase à 100 mg/ml dans un mélange de glycérol et de tampon acétate de sodium (50/50; v/v), pH5. L'activité de l'enzyme est mesurée à 37°C dans 100 mM de tampon Tris-HCI, pH8 contenant 0,01 % de Triton X-100 (volume/volume) et 0,02 % d'azide de sodium (poids/volume). Le céramide à tester, solubilisé dans le tétrahydrofurane (concentration en THF = 0,5 % en volume) est préincubé en présence de l'enzyme (0,05 mg/ml) dans le tampon pendant 5 minutes à 37°C. On ajoute le N-succinyl-(Ala)3-p-nitroanilide (concentration finale : 250 µM) et on mesure la libération de la p-nitroaniline dans une cuve en quartz par spectrophotométrie à 410 nm. La capacité inhibitrice du céramide est exprimée en pourcentage d'inhibition (% I) selon la relation : %I = (1 -(Vi)/(Vo))×100 [formula] dans laquelle Vi et Vo sont les vitesses d'apparition de la p-nitroaniline en présence et en absence d'inhibiteur respectivement. - Mesure de l'amélioration de la barrière cutanée a) mesure de la Perte Insensible en Eau (PIE) La mesure de la PIE permet de quantifier la très faible quantité d'eau qui diffuse passivement à travers le stratum corneum. Ce paramètre représente un très bon index de la fonction barrière du stratum corneum. Cette méthode est surtout utilisée pour contrôler l'efficacité de formules cosmétiques qui, contenant certains types de lipides sont capables de diminuer la PIE et, en conséquence, d'empêcher la déshydratation du stratum corneum. La sonde est laissée en contact de la peau pendant 2 minutes environ de façon à atteindre une position d'équilibre. PIE = D'(dP)/(dx)(gradient de pression de vapeur) [formula] Les valeurs sont exprimées en g/m^2/heure et permettent de calculer un delta de PIE = PIE (peau traitée) - PIE (peau témoin). L'appareil utilisé est un Evaporimètre EPI de Servomed. Les mesures sont effectuées sur deux groupes de 15 volontaires sains ayant une peau sèche, avant l'application du produit (t=0) et après l'application (t=0,5 heure, 1 heure, 3 heures et 6 heures) sur la face interne des deux avant-bras. L'analogue de céramide selon l'invention ou le céramide témoin est incorporé dans une crème ayant la composition suivante (en % en poids) : […]
inhibition at 250 µM [%],inhibition at 500 µM [%],Structure (SMILES)
8,57,"CCCCCCCCCCCCCCCC(=O)NC(C)(CO)COC(=O)CCCCCCCCCCCCCCC (centres unmarked) [Exemple 2, 1-palmitoyl-2-méthyl-2-palmitoylamino-1,3-propanediol]"
33,43,"CCCCCCCCCCCCCCCC(=O)NC(CC)(CO)COC(=O)CCCCCCCCCCCCCCC (centres unmarked) [Exemple 3, 1-palmitoyl-2-éthyl-2-palmitoylamino-1,3-propanediol]"
81,100,"CCCCCCCCCCCCC/C=C/[C@@H](O)[C@H](CO)NC(=O)CCCCCCCCCCCCCCC [Référence (a), N-palmitoyl-D-érythro-1,3-dihydroxy-2-amino-4-trans octadécène, reference compound]"
44,50,"CCCCCCCCCCCCCCCCCC(=O)N[C@@H](CO)[C@H](O)[C@H](O)CCCCCCCCCCCCCC [Référence (b), N-stéaroyl-phytosphingosine, reference compound]"
